PubChem BioAssay (NCI)
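These data come from cells grown in 96-well plates and exposed to compound for 48 hours at five concentrations. GI50 is the concentration that inhibits growth by half. TGI: concentration producing complete growth inhibition.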

Tests used:
Assay in all cases: NCI-60 cell line screen, 48 h
OVCAR-3 ovarian = system: OVCAR-3 ovarian
TK-10 renal = system: TK-10 renal
A549 NSCLC = system: A549 NSCLC
HT29 colon = system: HT29 colon
NCI-H23 lung = system: NCI-H23 lung
SW-620 colon = system: SW-620 colon
KM12 colon = system: KM12 colon
COLO 205 colon = system: COLO 205 colon
SN12C renal = system: SN12C renal
T-47D breast = system: T-47D breast

SMILES	GI50 (OVCAR-3 ovarian) [µM]	TGI (OVCAR-3 ovarian) [µM]	GI50 (TK-10 renal) [µM]	TGI (TK-10 renal) [µM]	GI50 (A549 NSCLC) [µM]	TGI (A549 NSCLC) [µM]	GI50 (HT29 colon) [µM]	TGI (HT29 colon) [µM]	GI50 (NCI-H23 lung) [µM]	TGI (NCI-H23 lung) [µM]	GI50 (SW-620 colon) [µM]	TGI (SW-620 colon) [µM]	GI50 (KM12 colon) [nM]	TGI (KM12 colon) [µM]	GI50 (COLO 205 colon) [µM]	TGI (COLO 205 colon) [µM]	GI50 (SN12C renal) [µM]	TGI (SN12C renal) [µM]	GI50 (T-47D breast) [µM]	TGI (T-47D breast) [µM]
COc1cc(CNc2ccccc2C(=O)N2CCN(C(=O)c3cc(-c4cc(OC)c(OC)c(OC)c4)n4nc(-c5ccccc5)cc4n3)CC2)cc(OC)c1OC	2.69	9.59	6.85	> 100	3.55	> 100	3.5	12	4.96	> 100	3.67	> 100	2780	> 100	4.1	15.4	17	> 100		
C=C[C@@]1(O)CCCC2=C(C(=O)OCC)CC[C@]21C		> 100		> 100		> 100		> 100		> 100		> 100		> 100		> 100		> 100		
Cc1cc(N2CCSCC2)nc(NC2CCCC(Nc3ccnc4cc(Cl)ccc34)C2)n1 (configuration not stated)	1.84	3.72	2.05	4.58	2.88	8.91	1.61	3.98	2.55	7.99	1.83	3.77	1940	4.25			1.9	4.37	2.41	5.9
O=Cc1ccc(-c2ccc(-c3nc4ccccc4o3)cc2)o1	24.1	61.9	32.5	74.8	58.9	> 100	53.2	> 100	31.8	> 100	33	> 100	21000	53.4	46.9	> 100			34.8	> 100
C=C(Nc1ccc([N+](=O)[O-])cc1[N+](=O)[O-])c1c/c(=N\NC(N)=S)c2ccccc2o1		86.1		> 100		> 100		> 100		> 100		> 100		> 100		> 100		> 100		
CCCN(CCCC(NC(C)=O)C(=O)NCc1ccccc1)C(=O)NCCCl (configuration not stated)		> 100		> 100		> 100		> 100		> 100		> 100		> 100		> 100		> 100		
C[N+](C)(C)CC(=O)N/N=C(\C(=O)NC1=C(Cl)C(=O)c2ccccc2C1=O)C(C#N)c1csc(-c2ccc([N+](=O)[O-])cc2)n1 (configuration not stated)		> 100		> 100		> 100		> 100		> 100		> 100		> 100		> 100		> 100		
CCc1cc(CCC(=O)Nc2c(C)cccc2C)[nH]n1		> 100		> 100		> 100		> 100		> 100		> 100		> 100		> 100		> 100		
COC(=O)Cc1ccc(Oc2cnc3cc(F)c(F)cc3n2)cc1	93.3	> 100	> 100	> 100	> 100	> 100	58.1	> 100	68.4	> 100	> 100	> 100	> 100000	> 100	> 100	> 100	> 100	> 100		
CCC(CNc1cc(OC)cc2cccnc12)NC1CCCCC1 (configuration not stated)	17.3	65.5			63.3	> 100			51.3	> 100	19.4	56.7	27600	> 100	11.3	24.6	> 100	> 100	17.2	64.3
CCN(CC)CCCNC(=O)c1c2c(n3ccccc13)C(=O)c1ncccc1C2=O	0.134	0.938			1.17	2.84	0.248	1.54	0.252	1.99	0.367	1.67	440	6.33	0.123	0.399			1.34	3.61
COC(C(=O)NCCCCNC(=O)C(OC)c1ccccc1)c1ccccc1 (configuration not stated)		> 100		> 100		> 100		> 100		> 100		> 100		> 100		> 100		> 100		
COc1cc(CNC2c3cc4c(cc3C(c3cc(OC)c(OC)c(OC)c3)[C@H]3C(=O)OCC23)OCO4)cc(OC)c1OC (some centres not stated)		> 100		> 100		> 100		19.5		0.77		> 100		0.692		0.37		> 100		
